Results from US4210638A, “Antiviral composition and method of treating virus diseases” (PCR, Inc., priority 1978, dated 1980).
Where “and” joins values, the source holds several entries; their conditions need not be identical. Equal entries are not always repeated. Where two headings read alike, the source gives them in different places.

What was measured:
[1] = Solubility; assay type: physicochemical
[2] = test system: HSV-2; test: Antiviral activity vs HSV-2 in HEp-2 cells (plaque assay in BHK cells); assay type: cell-based; details: for Average Log10 S.F.: +H4 U
Experimental: (§1) The culture medium containing the nucleoside analogs at varying concentrations are added to the infected cultures. In the case of HEp-2 cells which contain high deaminase levels, H4 U is incorporated into the medium. At 48 hours, virus is harvested from the cultures by freezing and thawing. The virus produced from each culture is titred by plaque assay in BHK cells. By using this protocol the antiviral effectiveness of F3 methyl dC can be compared directly with the effectiveness of other antiviral agents. Furthermore, by including H4 U in the medium, the effectiveness of F3 methyl dC can be determined without deamination at the nucleoside level.

[3] = test system: Herpes-varicella-zoster virus (VZV); test: Antiviral activity against cells infected with Herpes-varicella-zoster virus; assay type: cell-based
[4] = test system: cytidine deaminase; test: Incubation with crude cytidine deaminase extract of HEP-2 cells (deamination); assay type: in vitro ADME, human; details: crude HEP-2 cytidine deaminase extract; Whatman 3MM chromatography
[5] = Incubation with HNO2 (pH 4.5) at room temperature; assay type: physicochemical; details: 9 hours
Experimental: (§2) The results of incubation with HNO2 (pH 4.5) at room temperature were identical to those obtained above.

[6] = Survival / toxicity in the mouse; details: in vivo
Experimental: That is, 3 mg/kg body weight to 75 mg/kg body weight; for example, about 10 mg/kg body weight per day for 7 days or 700 mg for a 70 kg man per day for 7 days. […] 100 percent survival was obtained with a dose of 50 mg.

[7] = Metabolic stability; details: versus prior antiviral agents
[8] = Incubation with acetate buffer (pH 4.5); assay type: physicochemical; details: 9 hours
Experimental: as §2

[9] = target: T1, HSV-2 induced pyrimidine deoxyribonucleoside kinase (Human herpesvirus 2 strain HG52, UniProt P89446); test: Phosphorylation by HSV-2 induced pyrimidine deoxyribonucleoside kinase; assay type: biochemical
T1 construct: preparation not described in the excerpts
From the text: The following spots were eluted into H2 O and scanned from 225 to 350 nm: (a) standard, (b) F3 methyl dC standard, […] spot after cytidine deaminase treatment of F3 dT and […] spot after cytidine deaminase treatment of F3 methyl dC. The u.v. absorption profile of F3 dT derived from deamination of F3 methyl dC is identical to that obtained from authentic F3 dT.
Solutions a, c, and d, above, were adjusted to the same O. D. and used as substrates for HSV-2 induced pyrimidine deoxyribonucleoside kinase. Results:
Stock solutions of F3 dT and F3 methyl dC were made up and adjusted to the same concentration as the F3 dT and F3 methyl dC purified chromatographically (solutions a and b, respectively). Usually, F3 methyl dC is phosphorylated 1/6 of the extent that F3 dT is phosphorylated. […] This experiment was performed twice. Results:
Values for chromatographically purified samples are probably lower due to impurities arising from non-acid washed paper.

[10] = test system: HSV-1; test: Antiviral activity vs HSV-1 in HEp-2 cells (plaque assay in BHK cells); assay type: cell-based; details: for Log10 S.F. vs HSV-1: + H4 U (from FIG. 3)
Experimental: as §1

[11] = test system: HEp-2 cells; test: Cytotoxicity vs HEp-2 cells (colony formation, % survival); details: for % Survival: 2880 min
[12] = as above; details: human, hep-2 cells; for viability at 48 h, 60 µM: % S of HEp-2 cells, 0.06 mM; for viability at 48 h, 3 µM: 0.003 mM; for viability at 48 h, 30 µM: 0.03 mM; for viability at 48 h, 300 µM: 0.3 mM
[13] = % Survival, +H4 U 500 μg/ml (experiment 3 and 4)

T1 sequence (P89446 whole entry): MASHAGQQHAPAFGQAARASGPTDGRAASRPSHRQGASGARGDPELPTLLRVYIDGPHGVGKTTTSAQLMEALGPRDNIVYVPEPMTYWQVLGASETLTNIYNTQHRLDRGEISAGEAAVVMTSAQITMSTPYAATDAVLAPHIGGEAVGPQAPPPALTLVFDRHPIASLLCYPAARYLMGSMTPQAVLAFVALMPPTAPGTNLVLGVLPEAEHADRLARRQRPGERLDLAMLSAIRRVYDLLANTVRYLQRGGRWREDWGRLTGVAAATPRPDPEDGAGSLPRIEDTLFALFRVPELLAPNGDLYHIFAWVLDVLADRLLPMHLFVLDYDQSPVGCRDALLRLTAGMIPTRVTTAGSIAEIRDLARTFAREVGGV

Nc1nc(=O)n([C@H]2C[C@H](O)[C@@H](CO)O2)cc1C(F)(F)F [F3 methyl dC, 5-trifluoromethyl-2'-deoxycytidine]
solubility in DMSO ([1]; DMSO): a solvent for the F3 methyl dC | solubility in acetone ([1]; acetone): insoluble in acetone | solubility in water ([1]; water): partially soluble in water | Log10 Surviving Fraction of Plaque Forming Units ([2]; 0.003 mM, +H4 U 500 μg/ml (experiment 3 and 4)): -1.9 | Average Log10 S.F. ([2]; 0.003 mM, average): -1.7 | Average Log10 S.F. ([2]; 0.03 mM, average): -3.6 | Log10 Surviving Fraction of Plaque Forming Units ([2]; 0.3 mM, +H4 U 100 μg/ml (experiment 1 and 2)): -3.7 | Average Log10 S.F. ([2]; 0.3 mM, average): -3.7 | log reduction at 3 µM ([2]; Human alphaherpesvirus 2, 48 h, 0.003 mM, -H4 U, average, read-out: Average Log10 S.F.): 0.94 | log reduction at 30 µM ([2]; Human alphaherpesvirus 2, 48 h, 0.03 mM, +2'dH4 U 500 μg/ml, read-out: Log10 S.F. HSV-2): 3.5 | log reduction at 30 µM ([2]; Human alphaherpesvirus 2, 48 h, 0.03 mM, +H4 U 500 μg/ml, read-out: Log10 S.F. HSV-2): 3.4 | log reduction at 30 µM ([2]; Human alphaherpesvirus 2, 48 h, 0.03 mM, -H4 U, average, read-out: Average Log10 S.F.): 3.2 | log reduction at 30 µM ([2]; Human alphaherpesvirus 2, 48 h, 0.03 mM, no addition, read-out: Log10 S.F. HSV-2): 3.3 | log reduction at 300 µM ([2]; Human alphaherpesvirus 2, 48 h, 0.3 mM, -H4 U, average, read-out: Average Log10 S.F.): 3.7 | log reduction at 300 µM ([2]; Human alphaherpesvirus 2, 48 h, 0.3 mM, -H4 U, read-out: Log10 Surviving Fraction of Plaque Forming Units): 3.7 | log reduction at 30 µM ([2]; Human alphaherpesvirus 2, 48 h, read-out: Log10 Surviving Fraction of Plaque Forming Units, 0.03 mM, -H4 U): 3.1 | antiviral activity against cells infected with VZV [3]: selective antiviral activity | chromatographic change on incubation with cytidine deaminase [4]: formation of an Rf =0.43 spot and disappearance of the 0.80 spot | conversion to a product that has the same Rf as F3 dT [5]: approximately 98% | survival at 168 h ([6]; 50 mg/kg/day for 7 days, coadministered with H4 U): 100% | survival at 168 h ([6]; 250 mg/kg once per day for 7 days, H4 U coadministered one hour prior): 60% | LD50 at 168 h ([6]; coadministered with H4 U, for 7 days): 325 mg/kg | metabolic stability [7]: substantially increased metabolic stability | modification in acetate buffer [8]: did not lead to modification | ratio of phosphorylation relative to F3 dT ([9]; chromatographically purified): Approx 1/3 | nmoles phosphorylated/4 hrs ([9]; chromatographically purified, value in parentheses (experiment performed twice)): 0.06 nmoles/4 hrs | nmoles phosphorylated/4 hrs ([9]; chromatographically purified, value outside parentheses): 0.04 nmoles/4 hrs | ratio of phosphorylation relative to F3 dT ([9]; standard solutions): Approx 1/4 | nmoles phosphorylated/4 hrs ([9]; standard solutions, value in parentheses (experiment performed twice)): 0.08 nmoles/4 hrs | nmoles phosphorylated/4 hrs ([9]; standard solutions, value outside parentheses): 0.48 nmoles/4 hrs | extent of phosphorylation relative to F3 dT ([9]; usual value): 1/6 | Log10 S.F. vs HSV-1 ([10]; 0.003 mM): -4.2 | Log10 S.F. vs HSV-1 ([10]; 0.03 mM): < -4.6 | antiviral activity vs HSV-1 compared with F3 dT±H4 U ([10]; ±H4 U (FIG. 3)): more potent antiviral activity than F3 dT±H4 U | % Survival ([11]; 0.003 mM, +H4 U 100 μg/ml (experiment 1 and 2), 3 µM): 93% | % Survival ([11]; 0.003 mM, +H4 U 500 μg/ml (experiment 3 and 4), 3 µM): 61% | % Survival ([11]; 0.003 mM, -H4 U, 3 µM): 3% and 0.1% and 0.6% | % Survival ([11]; 0.03 mM, +H4 U 500 μg/ml (experiment 3 and 4), 30 µM): 31% | cytotoxicity at concentrations with antiviral activity ([11]; +H4 U): only marginally cytotoxic | increased survival with H4 dU than with H4 U ([11]; F3 methyl dC with H4 dU versus with H4 U): ~5 fold | therapeutic index ([11]; with H4 U, HSV-2 vs HEp-2 cytotoxicity): high therapeutic index | cytotoxicity at concentrations with antiviral activity ([11]; without H4 U): extremely cytotoxic | cytotoxicity at effective antiviral concentrations ([11]; ±H4 U (summary of Table IV)): marginal to only moderate cytotoxicity | viability at 48 h, 60 µM ([12]; +2'dH4 U 500 μg/ml): 50 ± 5% | viability at 48 h, 60 µM ([12]; +H4 U 500 μg/ml): 9 ± 3% | viability at 48 h, 60 µM ([12]; no addition): < 0.006% | viability at 48 h, 3 µM ([12]; % Survival, +H4 U 100 μg/ml (experiment 1 and 2)): 100% | viability at 48 h, 3 µM [12, 13]: 53% | viability at 48 h, 30 µM [12, 13]: 25% | viability at 48 h, 300 µM [12, 13]: 0.001% | viability at 48 h, 3 µM ([12]; Average % S, +H4 U, average): 77% | viability at 48 h, 3 µM ([12]; Average % S, -H4 U, average): 0.95% | viability at 48 h, 30 µM ([12]; Average % S, +H4 U, average): 32% | viability at 48 h, 30 µM ([12]; Average % S, -H4 U, average): < 0.01% | viability at 48 h, 300 µM ([12]; Average % S, +H4 U, average): < 0.01% | viability at 48 h, 300 µM ([12]; Average % S, -H4 U, average): < 0.01%
